{"source": "ChEMBL document CHEMBL1130093", "about": "“Synthesis and nicotinic acetylcholine receptor binding properties of exo-2-(2'-fluoro-5'-pyridinyl)-7-azabicyclo-[2.2.1]heptane: a new positron emission tomography ligand for nicotinic receptors” (J Med Chem, 1997)"}
{"target": "Neuronal acetylcholine receptor (Rattus norvegicus) (UniProt P04757+P09483+P12389+P12390+P12392+P43144+Q9JLB5+P12391+P43143+P20420+Q05941)", "assay": "Kapp value towards nicotinic acetylcholine receptor was obtained from three to four independent competition binding experiments using [3H]-NCEPB", "type": "protein-complex assay", "units": {"K app": "nM"}}
{"smiles": "Fc1ccc([C@H]2CC3CCC2N3)cn1", "note": "(stereo partly drawn)", "K app": 0.02}
{"smiles": "CN1CCC[C@H]1c1cccnc1", "K app": 6.2}
{"smiles": "Clc1ccc(C2CC3CC[C@H]2N3)cn1", "note": "(stereo partly drawn)", "K app": 0.024}
